Drawing on patent publication US11834453B2, “Substituted pyrimido[5,4-d]pyrimidines as HER2 inhibitors” (Array BioPharma Inc., priority 2020, dated 2023), this text covers IC50 and efflux ratio for 8 molecules.

A word on the IC50: it is the concentration at which inhibition is half-maximal. Broadly, the efflux ratio is a quotient of directional permeabilities that is used to spot active efflux.

Molecules are shown by their SMILES. Like-named read-outs stand apart in the source and are kept apart here.

The target of series [1] is ErbB2 insYVMA (HER2-YVMA, SEQ ID NO: 2) (Homo sapiens, UniProt P04626, INS775YVMA/P1170A). In words: biochemical. The note with it: ErbB2 insYVMA enzyme assay.
Chain of ErbB2 insYVMA (HER2-YVMA, SEQ ID NO: 2) (P04626 with tags, fused parts or gaps INS775YVMA/P1170A limits assumed): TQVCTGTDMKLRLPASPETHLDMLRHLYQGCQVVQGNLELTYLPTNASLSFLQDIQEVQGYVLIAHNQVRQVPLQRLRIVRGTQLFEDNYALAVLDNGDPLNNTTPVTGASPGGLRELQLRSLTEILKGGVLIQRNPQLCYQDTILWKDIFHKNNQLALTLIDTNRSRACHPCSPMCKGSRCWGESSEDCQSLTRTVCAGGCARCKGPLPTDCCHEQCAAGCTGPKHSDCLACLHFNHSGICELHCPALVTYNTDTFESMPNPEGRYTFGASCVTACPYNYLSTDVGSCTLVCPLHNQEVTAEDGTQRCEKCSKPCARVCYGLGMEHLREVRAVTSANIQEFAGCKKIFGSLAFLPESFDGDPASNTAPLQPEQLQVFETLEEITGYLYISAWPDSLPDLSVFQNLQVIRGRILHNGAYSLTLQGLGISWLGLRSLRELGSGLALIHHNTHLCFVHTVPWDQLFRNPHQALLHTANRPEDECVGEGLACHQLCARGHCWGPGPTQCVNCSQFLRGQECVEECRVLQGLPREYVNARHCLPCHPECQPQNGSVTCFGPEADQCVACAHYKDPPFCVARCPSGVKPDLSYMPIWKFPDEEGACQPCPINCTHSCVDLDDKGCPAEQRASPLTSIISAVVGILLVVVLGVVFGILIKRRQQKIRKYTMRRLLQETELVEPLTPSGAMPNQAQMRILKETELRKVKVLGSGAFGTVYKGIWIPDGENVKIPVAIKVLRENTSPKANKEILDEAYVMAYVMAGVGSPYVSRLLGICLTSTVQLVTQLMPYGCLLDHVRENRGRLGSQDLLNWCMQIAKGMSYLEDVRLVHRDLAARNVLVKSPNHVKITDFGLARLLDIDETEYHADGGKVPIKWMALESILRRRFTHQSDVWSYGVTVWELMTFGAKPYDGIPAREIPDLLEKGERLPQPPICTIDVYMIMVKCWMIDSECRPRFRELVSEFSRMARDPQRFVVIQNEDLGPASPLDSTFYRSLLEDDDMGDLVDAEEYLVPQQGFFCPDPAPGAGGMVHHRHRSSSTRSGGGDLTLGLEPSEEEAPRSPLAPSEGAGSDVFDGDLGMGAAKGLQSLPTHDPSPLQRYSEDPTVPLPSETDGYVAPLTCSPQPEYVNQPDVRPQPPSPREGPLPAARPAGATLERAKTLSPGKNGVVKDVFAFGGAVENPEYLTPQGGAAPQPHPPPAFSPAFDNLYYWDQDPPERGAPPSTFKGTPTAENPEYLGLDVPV
The next series concerns the target ErbB2 WT (Homo sapiens (Human), UniProt P04626). Briefly: ErbB enzyme assay (CisBio HTRF KinEASE-TK), Assay 2. The series is classed as biochemical. A digest of the protocol:
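ErbB2 phosphorylates 250 nM biotin-TK substrate at 1 mM ATP in 25 mM HEPES pH 7.4, 10 mM MgCl2, 0.01% Triton X-100 and 2% DMSO, for 30 min at 22 °C. Product is detected by HTRF with Sa-XL665 and TK-Ab-Cryptate. Percent of control is set by DMSO-only wells and pre-quenched wells.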
Background: TR-FRET usually uses a lanthanide donor and a delayed reading to cut background.

The target of the next series is EGFR (Homo sapiens (Human), UniProt P00533). In words: ErbB enzyme assay (CisBio HTRF KinEASE-TK), Assay 3. The series is classed as biochemical. In a few lines: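 Kinase + 250 nM biotin TK-substrate, 1 mM ATP, cpd (3-fold dil.), HEPES pH 7.4/10 mM MgCl2/0.01% Triton/2% DMSO; 30 min 22 °C. Quench w/ Sa-XL665 + TK-Ab-Cryptate, 1 h, HTRF. IC50 = 50 POC on 4PL fit.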

Series [2] deals with ErbB2 with Exon 20 YVMA insertion (HER2-YVMA) (Homo sapiens (Human), UniProt P04626, INS775YVMA). In words: Cellular phosphorylation assay, constitutive ErbB2 phosphorylation (Y1196) in engineered NIH 3T3 cells, Assay 4. The series is classed as cell-based. In a few lines:
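Engineered NIH 3T3 cells expressing HER2-YVMA treated with compounds 1 h at 37 °C, then formaldehyde-fixed and methanol-permeabilized. pErbB2 Y1196 detected by in-cell infrared immunofluorescence, normalized to GAPDH. IC50 from the normalized curves.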

Another series concerns the target MDR1 (P-gp) (Homo sapiens (Human), UniProt P08183). In words: MDR1 transfected LLC-PK1 permeability/efflux, Assay 6. The note with it: pig.
Another series concerns the target EGFR wild type (EGFR WT) (Homo sapiens (Human), UniProt P00533). In words: Cellular phosphorylation assay, EGF-stimulated EGFR phosphorylation in engineered NIH 3T3 cells, Phospho-EGFR DuoSet IC ELISA, Assay 5. The series is classed as cell-based. In a few lines: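 NIH 3T3 cells expressing EGFR WT (20,000/well, attached overnight) were exposed to serially diluted compound for 1 h at 37 °C, then stimulated with 100 ng/ml rEGF for 10 min. Phospho-EGFR in lysates measured by sandwich ELISA optical density; IC50 from curves.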
In general terms: ELISA stands for enzyme-linked immunosorbent assay.

The next series has as its target BCRP (Homo sapiens (Human), UniProt Q9UNQ0). Briefly: BCRP transfected MDCKII canine Mdr1 knockout permeability/efflux, Assay 9. The following applies: dog, Assay 9 Pe Ratio, efflux ratio Papp(B-A)/Papp(A-B), BCRP transfected MDCKII canine Mdr1 knockout.
[3] abbreviates: LLC-PK1, Assay 6 Pe Ratio, efflux ratio Papp(B-A)/Papp(A-B), MDR1 transfected LLC-PK1.

Chain of ErbB2 WT (P04626 23-1255): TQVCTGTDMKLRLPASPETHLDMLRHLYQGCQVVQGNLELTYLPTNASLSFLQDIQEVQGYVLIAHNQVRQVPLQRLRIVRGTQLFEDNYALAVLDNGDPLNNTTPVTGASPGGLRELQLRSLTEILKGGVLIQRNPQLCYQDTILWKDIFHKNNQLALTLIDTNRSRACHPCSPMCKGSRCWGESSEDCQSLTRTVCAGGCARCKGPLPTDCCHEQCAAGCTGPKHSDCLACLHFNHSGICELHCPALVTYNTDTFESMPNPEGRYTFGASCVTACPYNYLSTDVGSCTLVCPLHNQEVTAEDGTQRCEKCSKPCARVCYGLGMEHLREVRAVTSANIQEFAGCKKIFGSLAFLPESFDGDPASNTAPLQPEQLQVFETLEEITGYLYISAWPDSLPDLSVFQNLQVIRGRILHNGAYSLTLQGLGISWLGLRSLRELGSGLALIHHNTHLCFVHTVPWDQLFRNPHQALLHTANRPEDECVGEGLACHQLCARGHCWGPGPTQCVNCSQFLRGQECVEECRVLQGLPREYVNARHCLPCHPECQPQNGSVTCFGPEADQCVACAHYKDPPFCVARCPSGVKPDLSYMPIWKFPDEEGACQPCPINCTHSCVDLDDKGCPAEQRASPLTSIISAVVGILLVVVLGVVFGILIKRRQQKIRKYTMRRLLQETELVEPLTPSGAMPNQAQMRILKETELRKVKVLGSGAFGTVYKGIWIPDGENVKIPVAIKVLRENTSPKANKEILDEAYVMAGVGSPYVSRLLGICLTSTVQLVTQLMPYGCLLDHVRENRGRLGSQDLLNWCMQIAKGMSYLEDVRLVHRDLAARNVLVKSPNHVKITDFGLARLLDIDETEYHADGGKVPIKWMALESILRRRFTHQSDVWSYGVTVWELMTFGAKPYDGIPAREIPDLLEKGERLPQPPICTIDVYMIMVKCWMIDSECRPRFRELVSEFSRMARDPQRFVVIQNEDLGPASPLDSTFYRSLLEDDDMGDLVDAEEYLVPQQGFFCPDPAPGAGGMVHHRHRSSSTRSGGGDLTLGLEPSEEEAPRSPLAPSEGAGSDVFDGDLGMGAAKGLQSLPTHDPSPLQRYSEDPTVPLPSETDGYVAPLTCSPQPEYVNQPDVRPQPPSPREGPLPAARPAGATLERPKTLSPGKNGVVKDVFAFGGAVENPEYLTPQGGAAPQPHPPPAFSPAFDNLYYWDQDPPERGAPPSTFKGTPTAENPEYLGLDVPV
Chain of MDR1 (P-gp) (P08183 whole entry): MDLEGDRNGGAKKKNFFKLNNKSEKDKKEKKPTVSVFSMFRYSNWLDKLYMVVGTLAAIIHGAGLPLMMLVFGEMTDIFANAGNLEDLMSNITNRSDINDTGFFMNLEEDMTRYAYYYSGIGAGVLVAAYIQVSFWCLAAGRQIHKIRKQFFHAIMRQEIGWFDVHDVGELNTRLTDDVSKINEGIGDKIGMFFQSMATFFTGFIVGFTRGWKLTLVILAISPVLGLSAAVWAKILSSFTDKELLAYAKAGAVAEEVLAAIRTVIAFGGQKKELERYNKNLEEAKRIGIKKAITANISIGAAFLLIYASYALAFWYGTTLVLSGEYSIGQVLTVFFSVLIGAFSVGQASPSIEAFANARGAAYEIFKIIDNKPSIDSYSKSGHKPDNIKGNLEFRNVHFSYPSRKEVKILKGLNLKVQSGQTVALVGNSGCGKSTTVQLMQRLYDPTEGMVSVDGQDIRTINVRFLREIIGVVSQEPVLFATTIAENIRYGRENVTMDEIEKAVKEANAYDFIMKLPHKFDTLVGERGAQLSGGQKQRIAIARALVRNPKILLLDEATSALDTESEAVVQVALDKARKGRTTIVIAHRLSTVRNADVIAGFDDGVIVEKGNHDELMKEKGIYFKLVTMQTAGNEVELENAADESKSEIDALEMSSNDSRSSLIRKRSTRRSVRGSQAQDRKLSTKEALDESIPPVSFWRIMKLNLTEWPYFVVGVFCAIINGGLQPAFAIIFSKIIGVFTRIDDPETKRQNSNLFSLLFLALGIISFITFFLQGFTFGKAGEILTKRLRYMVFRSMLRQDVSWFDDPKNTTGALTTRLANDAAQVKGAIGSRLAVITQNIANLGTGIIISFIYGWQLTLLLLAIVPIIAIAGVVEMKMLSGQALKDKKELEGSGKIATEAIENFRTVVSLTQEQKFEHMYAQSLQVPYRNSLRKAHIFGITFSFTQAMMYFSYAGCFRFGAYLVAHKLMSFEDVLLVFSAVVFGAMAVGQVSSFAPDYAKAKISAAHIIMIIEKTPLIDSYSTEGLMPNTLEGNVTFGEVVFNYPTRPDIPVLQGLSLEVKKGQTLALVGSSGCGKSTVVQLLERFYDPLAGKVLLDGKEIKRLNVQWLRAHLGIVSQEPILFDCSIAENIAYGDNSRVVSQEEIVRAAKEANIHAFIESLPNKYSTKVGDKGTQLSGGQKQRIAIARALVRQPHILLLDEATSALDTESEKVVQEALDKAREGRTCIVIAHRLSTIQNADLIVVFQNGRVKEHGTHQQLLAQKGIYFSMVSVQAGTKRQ
Chain of ErbB2 with Exon 20 YVMA insertion (HER2-YVMA) (P04626 other isoform, or with tags, fused parts or gaps ins YVMA behind 775): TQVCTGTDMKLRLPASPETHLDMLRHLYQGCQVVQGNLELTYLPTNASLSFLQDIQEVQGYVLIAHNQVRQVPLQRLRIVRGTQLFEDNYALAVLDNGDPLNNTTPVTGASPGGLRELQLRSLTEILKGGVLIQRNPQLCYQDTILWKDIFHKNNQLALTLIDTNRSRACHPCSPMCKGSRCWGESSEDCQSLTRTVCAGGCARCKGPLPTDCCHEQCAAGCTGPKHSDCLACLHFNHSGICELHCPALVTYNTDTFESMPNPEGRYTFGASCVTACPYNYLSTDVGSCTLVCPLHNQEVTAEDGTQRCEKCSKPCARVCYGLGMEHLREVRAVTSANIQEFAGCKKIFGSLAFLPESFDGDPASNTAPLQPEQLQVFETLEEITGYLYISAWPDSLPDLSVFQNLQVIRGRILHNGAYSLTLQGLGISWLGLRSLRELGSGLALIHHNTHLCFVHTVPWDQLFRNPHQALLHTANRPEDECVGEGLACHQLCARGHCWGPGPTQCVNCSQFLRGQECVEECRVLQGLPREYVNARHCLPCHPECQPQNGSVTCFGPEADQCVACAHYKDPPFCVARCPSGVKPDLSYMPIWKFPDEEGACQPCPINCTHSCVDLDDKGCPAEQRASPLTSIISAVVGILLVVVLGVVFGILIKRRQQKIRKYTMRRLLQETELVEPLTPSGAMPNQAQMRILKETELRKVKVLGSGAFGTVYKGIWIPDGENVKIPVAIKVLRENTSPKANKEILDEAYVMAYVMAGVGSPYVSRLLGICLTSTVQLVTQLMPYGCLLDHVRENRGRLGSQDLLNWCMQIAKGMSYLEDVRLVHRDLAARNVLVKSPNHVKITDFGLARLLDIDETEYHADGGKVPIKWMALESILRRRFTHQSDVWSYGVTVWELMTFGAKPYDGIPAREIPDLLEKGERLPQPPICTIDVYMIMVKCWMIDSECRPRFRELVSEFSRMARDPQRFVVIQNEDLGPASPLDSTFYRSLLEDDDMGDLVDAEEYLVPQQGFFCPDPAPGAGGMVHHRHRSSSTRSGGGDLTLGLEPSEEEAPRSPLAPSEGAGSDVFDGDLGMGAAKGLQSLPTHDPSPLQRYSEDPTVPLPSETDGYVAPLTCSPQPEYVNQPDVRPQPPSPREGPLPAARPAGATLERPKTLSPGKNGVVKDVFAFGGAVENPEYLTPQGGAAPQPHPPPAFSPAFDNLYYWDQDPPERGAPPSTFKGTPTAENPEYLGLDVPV

Consider `Cc1cc(Nc2ncnc3cnc(N4CCCC5(COC5)C4)nc23)ccc1Oc1ccc2c(c1)ncn2C` [Example 45, N-(3-methyl-4-((1-methyl-1H-benzo[d]imidazol-5-yl)oxy)phenyl)-6-(2-oxa-6-azaspiro[3.5]nonan-6-yl)pyrimido[5,4-d]pyrimidin-4-amine], for which the IC50 turned out to be 31 nM in series [1] (read-out: Assay 1 IC50), 25 nM at ErbB2 WT, 4740 nM against EGFR and 56.2 nM in series [2]. In addition, at MDR1 (P-gp) (LLC-PK1), the efflux ratio at 2 h, 1 μM is 2.2.
Turning to `Cc1cc(Nc2ncnc3cnc(N4CC[C@@H](C)C4=O)nc23)ccc1Oc1ccc2c(c1)ncn2C` [Example 51, (R)-3-methyl-1-(8-((3-methyl-4-((1-methyl-1H-benzo[d]imidazol-5-yl)oxy)phenyl)amino)pyrimido[5,4-d]pyrimidin-2-yl)pyrrolidin-2-one], the IC50 was 41.1 nM in series [1] (read-out: Assay 1 IC50), 79.3 nM on ErbB2 WT, at least 10000 nM on EGFR and 52.1 nM in series [2]. Also, the efflux ratio at 2 h, 1 μM on MDR1 (P-gp) (setting [3]) came to 4.4.
On the same counts, the results for `Cc1cc(Nc2ncnc3cnc(N4CC5COC(C5)C4)nc23)ccc1Oc1ccc2c(c1)ncn2C` (centres unmarked) [Example 67, 6-(6-oxa-3-azabicyclo[3.2.1]octan-3-yl)-N-(3-methyl-4-((1-methyl-1H-benzo[d]imidazol-5-yl)oxy)phenyl)pyrimido[5,4-d]pyrimidin-4-amine] are 15.1 nM, 34.3 nM, at least 10000 nM, 86.7 nM and 2.1.
`Cc1cc(Nc2ncnc3cnc(N4CC5CC(C4)O5)nc23)ccc1Oc1ccc2c(c1)ncn2C.O=C(O)C(F)(F)F` [Example 69, 6-(6-oxa-3-azabicyclo[3.1.1]heptan-3-yl)-N-(3-methyl-4-((1-methyl-1H-benzo[d]imidazol-5-yl)oxy)phenyl)pyrimido[5,4-d]pyrimidin-4-amine 2,2,2-trifluoroacetate]: the IC50 in series [1] (Assay 1 IC50 (nM)) is 27.6 nM; on ErbB2 WT it was 161 nM; against EGFR it was at least 10000 nM; in series [2], 35.8 nM. Further, the efflux ratio at 2 h, 1 μM on MDR1 (P-gp) (LLC-PK1) was found to be 2.6.
Take `Cc1cc(Nc2ncnc3cnc(N4CCCO4)nc23)ccc1Oc1ccc2c(c1)ncn2C` [Example 178, 6-(isoxazolidin-2-yl)-N-(3-methyl-4-((1-methyl-1H-benzo[d]imidazol-5-yl)oxy)phenyl)pyrimido[5,4-d]pyrimidin-4-amine]: the IC50 in series [1] (read-out: Assay 1 IC50) is 20.9 nM; at EGFR, at least 10000 nM; in series [2] it was 9.9 nM; on EGFR wild type (EGFR WT), at least 5000 nM. Further, the efflux ratio at 2 h, 1 μM at MDR1 (P-gp) (setting [3]) is 3.7.
Take `Cc1cc(Nc2ncnc3cnc(N(C)C[C@@H](C)O)nc23)ccc1Oc1ccc2c(c1)ncn2C` [Example 189, (R)-1-(methyl(8-((3-methyl-4-((1-methyl-1H-benzo[d]imidazol-5-yl)oxy)phenyl)amino)pyrimido[5,4-d]pyrimidin-2-yl)amino)propan-2-ol]: the IC50 in series [1] (read-out: Assay 1 IC50) is 12.7 nM; against EGFR, 6460 nM; in series [2] it was 13.9 nM; at EGFR wild type (EGFR WT), at least 5000 nM. Further, the efflux ratio at 2 h, 1 μM at MDR1 (P-gp) (setting [3]) came to 4.2.
With `Cc1cc(Nc2ncnc3cnc(N(C)CC(C)(C)O)nc23)ccc1Oc1cc(F)c2c(c1)ncn2C` [Example 203, 1-((8-((4-((7-fluoro-1-methyl-1H-benzo[d]imidazol-5-yl)oxy)-3-methylphenyl)amino)pyrimido[5,4-d]pyrimidin-2-yl)(methyl)amino)-2-methylpropan-2-ol], the IC50 in series [1] (read-out: Assay 1 IC50) was 20.3 nM; against ErbB2 WT, 65.4 nM; against EGFR, 4580 nM; in series [2] it was 8.3 nM; on EGFR wild type (EGFR WT), at least 5000 nM. Moreover, the efflux ratio at 2 h, 1 μM at BCRP is 1.9.
For `COCCOC1CN(c2ncc3ncnc(Nc4ccc(Oc5ccc6c(c5)ncn6C)c(C)c4)c3n2)C1` [Example 240], the IC50 in series [1] (read-out: Assay 1 IC50) is 41.3 nM; against ErbB2 WT it was 77.7 nM; on EGFR, at least 10000 nM; in series [2], 66.5 nM. Further, on MDR1 (P-gp) (setting [3]), the efflux ratio at 2 h, 1 μM came out at 2.9.
